Assay [1] has as its system Stagonospora nodorum (Leptosphaeria nodorum—LEPTNO). The assay can be described thus: In vitro fungal growth inhibition, Stagonospora nodorum (LEPTNO). Format: cell-based. To be noted: Leptosphaeria; 25 ppm in growth medium; read-out: LEPTNO in vitro Growth Inhibition.
In assay [2] the test system is Leptosphaeria nodorum—LEPTNO. Description: Glume Blotch of Wheat, in vivo whole plant, 24 Hour Protectant. To be noted: 100 ppm spray, wheat, 24 hour protectant, % control of fungal infection vs untreated plants.
The test system of assay [3] is Rhizoctonia solani (RHIZSO). The assay can be described thus: microbe, parasite or virus in culture. In kind it is cell-based. The following applies: Rhizoctonia solani, read-out: RHIZSO in vitro Growth Inhibition.
For assay [4], the system named is Magnaporthe grisea (Pyricularia oryzae—PYRIOR). The assay can be described thus: microbe, parasite or virus in culture. Format: cell-based. The following applies: Pyricularia oryzae, read-out: PYRIOR in vitro Growth Inhibition.
The subject of a further assay is Septoria tritici—SEPTTR. Description: Leaf Blotch of Wheat, in vivo whole plant, 24 Hour Protectant. The following applies: 100 ppm spray, wheat, 24 hour protectant, % control of fungal infection vs untreated plants.
A further assay deals with Ustilago maydis (USTIMA). Description: microbe, parasite or virus in culture. The following applies: Mycosarcoma maydis, read-out: USTIMA in vitro Growth Inhibition. Format: cell-based.
The subject of assay [5] is Puccinia recondita—PUCCRT. The assay can be described thus: Brown Rust of Wheat, in vivo whole plant, 24 Hour Protectant. To be noted: 100 ppm spray, wheat, 24 hour protectant, % control of fungal infection vs untreated plants.
Assay [6] has as its system Phytophthora infestans—PHYTIN. Description: whole plant or invertebrate. Format: in vivo. To be noted: Phytophthora, in Solanum lycopersicum, 24 h, read-out: PHYTIN in vivo 1 Day Protectant.
A further assay concerns Erysiphe graminis—ERYSGT. Description: Powdery Mildew of Wheat, in vivo whole plant, 24 Hour Protectant. The following applies: 100 ppm spray, wheat, 24 hour protectant, % control of fungal infection vs untreated plants; for pest or weed control at 100 ppm: Erysiphe, read-out: ERYSGT in vivo 1 Day Protectant.
Assay [7] relates to Mycosphaerella graminicola (Septoria tritici—SEPTTR). The assay can be described thus: In vitro fungal growth inhibition, Mycosphaerella graminicola (SEPTTR). The following applies: Zymoseptoria tritici; 25 ppm in growth medium; read-out: SEPTTR in vitro Growth Inhibition. In kind it is cell-based.
Assay [8] has as its system Phytophthora infestans (PHYTIN). The assay can be described thus: microbe, parasite or virus in culture. In kind it is cell-based. The following applies: Phytophthora infestans, read-out: PHYTIN in vitro Growth Inhibition.

The results in this text go back to patent publication US6706740B2, “Fungicidal heterocyclic aromatic amides and their compositions, methods of use and preparation” (Dow AgroSciences LLC, priority 1999, dated 2004).

On to `COc1ccnc(C(=O)N[C@H]2COC(=O)[C@H](Cc3ccccc3)[C@@H](OC(=O)C(C)C)[C@H](C)OC2=O)c1OC(=O)C1CCCC1` [Compound 611], for which the inhibition at 25 ppm (in assay [1]; in assay [3]; in [4]; in the assay with Ustilago maydis (USTIMA); in [7]; in assay [8]) was under 80% each time. In addition, the “LEPTNO in vivo 1 Day Protectant” value in [2] is given as “+ +”. For the same compound, the “SEPTTR in vivo 1 Day Protectant” value with Septoria tritici—SEPTTR is given as “+ +”. The “PUCCRT in vivo 1 Day Protectant” value in [5] was “+ +”. In addition, the pest or weed control at 100 ppm (in [6]; with Erysiphe graminis—ERYSGT) was under 25% in each case.

As for `COc1ccnc(C(=O)N[C@H]2COC(=O)[C@H](Cc3ccccc3)[C@@H](OC(=O)C(C)C)[C@H](C)OC2=O)c1OC(=O)C1CCCCC1` [Compound 612], the inhibition at 25 ppm in [1] is over 80%; in assay [3], under 80%; in [4], under 80%; in the assay with Ustilago maydis (USTIMA) it was under 80%; in assay [7], under 80%; in [8] it was under 80%. Also, the “LEPTNO in vivo 1 Day Protectant” value in assay [2] was “+ +”. In addition, the “SEPTTR in vivo 1 Day Protectant” value with Septoria tritici—SEPTTR is on record as “+ +”. In addition, the “PUCCRT in vivo 1 Day Protectant” value in assay [5] is “+ +”. Further, the pest or weed control at 100 ppm (in assay [6]; with Erysiphe graminis—ERYSGT) was under 25% in each case.

`CCCCCCC(=O)Oc1c(OC)ccnc1C(=O)N[C@H]1COC(=O)[C@H](Cc2ccccc2)[C@@H](OC(=O)C(C)C)[C@H](C)OC1=O` [Compound 613]: the inhibition at 25 ppm is under 80% in assay [1]; under 80% in assay [3]; under 80% in assay [4]; under 80% with Ustilago maydis (USTIMA); under 80% in [7]; over 80% in assay [8]. The pest or weed control at 100 ppm was 25 to 74% in [2] (Leptosphaeria, read-out: LEPTNO in vivo 1 Day Protectant) and 25 to 74% in assay [6]. Besides, the “SEPTTR in vivo 1 Day Protectant” value with Septoria tritici—SEPTTR was “+ +”. Moreover, the “PUCCRT in vivo 1 Day Protectant” value in [5] is reported as “+ +”. For the same compound, the “ERYSGT in vivo 1 Day Protectant” value in the assay with Erysiphe graminis—ERYSGT is given as “+ +”.

Turning to `COc1ccnc(C(=O)N[C@H]2COC(=O)[C@H](Cc3ccccc3)[C@@H](OC(=O)C(C)C)[C@H](C)OC2=O)c1OC(=O)CCCBr` [Compound 625], the inhibition at 25 ppm in assay [1] was over 80%; in assay [3], under 80%; in assay [4] it was under 80%; in the assay with Ustilago maydis (USTIMA) it was under 80%; in assay [7], under 80%; in assay [8], under 80%. Besides, in assay [2], the “LEPTNO in vivo 1 Day Protectant” value is “+ +”. Also, the “SEPTTR in vivo 1 Day Protectant” value with Septoria tritici—SEPTTR was “+ +”. Besides, in assay [5], the “PUCCRT in vivo 1 Day Protectant” value is recorded as “+ +”. Besides, the pest or weed control at 100 ppm (in assay [6]; with Erysiphe graminis—ERYSGT) was under 25% throughout.

`COc1ccc(C(=O)Oc2c(OC)ccnc2C(=O)N[C@H]2COC(=O)[C@H](Cc3ccccc3)[C@@H](OC(=O)C(C)C)[C@H](C)OC2=O)cc1` [Compound 634]: the inhibition at 25 ppm (in [1]; in assay [3]; in assay [4]; in the assay with Ustilago maydis (USTIMA); in [7]; in assay [8]) was under 80% each time. In addition, in assay [2], the “LEPTNO in vivo 1 Day Protectant” value was “+ +”. In the assay with Septoria tritici—SEPTTR, the “SEPTTR in vivo 1 Day Protectant” value is on record as “+ +”. In addition, the “PUCCRT in vivo 1 Day Protectant” value in assay [5] was “+ +”. Also, the pest or weed control at 100 ppm (in [6]; in the assay on Erysiphe graminis—ERYSGT) was under 25% in each case.

For `COc1ccnc(C(=O)N[C@H]2COC(=O)[C@H](Cc3ccccc3)[C@@H](OC(=O)C(C)C)[C@H](C)OC2=O)c1OC(=O)c1ccc(F)c(F)c1` [Compound 639], the inhibition at 25 ppm in [1] is over 80%; in assay [3], under 80%; in assay [4], under 80%; in the assay with Ustilago maydis (USTIMA), under 80%; in [7] it was under 80%; in [8], under 80%. The “LEPTNO in vivo 1 Day Protectant” value in [2] is on record as “+ +”. Further, in the assay on Septoria tritici—SEPTTR, the “SEPTTR in vivo 1 Day Protectant” value is recorded as “+ +”. Besides, the “PUCCRT in vivo 1 Day Protectant” value in [5] is “+ +”. In addition, the pest or weed control at 100 ppm (in assay [6]; in the assay with Erysiphe graminis—ERYSGT) was under 25% in each case.
